The record followed here is US20250382346A1, “NEURONAL PROMOTERS AND USES THEREOF” (priority 2023, published 2025).

This test addresses T1, hM3Dq (Homo sapiens, UniProt P20309, A239G/Y149C).
T1 construct: expressed in transfected cells; host or cells: neurons of C57BL/6J mice or of macaques, transduced in vivo by nigral AAV8R12-G88P3-HA-hM3Dq
As to the kind of experiment: Chemogenetic manipulation of BG direct pathway in mice with hM3Dq: rotations, nigral c-Fos. It counts as in vivo. Conditions: for c-Fos+ cells in the SNr: AAV8R12-G88P3-HA-hM3Dq; for rotation behavior (FIG. 6C), mean±SEM: control vector AAV8R12-G88P3-EYFP, n=5, no effect. As for the experimental part: Mice were anesthetized with sodium pentobarbital (Nembutal; 80 mg/kg, i.p.), and then placed into a stereotaxic device (KOPF). Eye cream was applied on both corneas to avoid dehydration. The skull above the targeted areas was thinned with a dental drill and carefully removed. Injections were conducted with a 10 μL syringe connected to a 33-Gauge needle (Neuros; Hamilton), using a microsyringe pump (Legato 130, KD Scientific). A total volume of 200 nL virus was injected into the SNr at a speed of 20 nL/min. The coordinates for the SNr were 3.4 mm posterior, 1.3 mm lateral, 4.8 mm ventral to the bregma.
Mice that were used in the behavioral experiments were then implanted with guide cannulas (KOPF) unilaterally aiming at the dorsomedial striatum (0.5 mm anterior, 1.5 mm lateral, 3.5 mm ventral to the bregma). The cannulas were fixed to the skull with dental cement. Stainless steel obturators were inserted into the guide cannulas and were replaced every other day to maintain the patency until infusions were made. Mice were allowed to recover from the surgery for at least 3 weeks before further studies.
Labeling specificity of the retrograde AAV tracers was examined. […] To explore the functional features of retrograde AAV-labeled cells, AAV8R12-G88P3-HA-hM3Dq, which enables neuronal excitation upon clozapine N-oxide (CNO) administration, were injected into the right SNr of C57BL/6J mice. […] Based on the observed infection patterns of retrograde AAV, it was reasoned that the ipsiversive rotations were a consequence of the activation of the right SNr, which is a major inhibitory output center of the BG and was labeled by the locally injected AAV.
Mice were individually handled for 10-20 seconds per day for at least 5 days to habituate them to the experimenter. The open field test was conducted in a test apparatus (50 cm×50 cm×50 cm) with an HD digital camera (Sony) positioned above the arena. On day one, mice were habituated to the apparatus for 10 minutes. On day 2, mice were administrated saline (0.1 mL i.p. or 200 nL intracranially [i.e.] through the guide cannulas). On day 3, mice were administrated with Clozapine-N-oxide (CNO, Hello Bio, HB1807; 0.3 mg/kg i.p. or 200 nL at 100 μM i.e.). All behavioral tests were conducted 30 minutes after injection. During the test, mice were allowed to freely explore the apparatus for 10 minutes. The behavioral data were analyzed with ANY-maze software (Stoelting Co.).

T1 sequence (P20309 whole entry Y149C/A239G): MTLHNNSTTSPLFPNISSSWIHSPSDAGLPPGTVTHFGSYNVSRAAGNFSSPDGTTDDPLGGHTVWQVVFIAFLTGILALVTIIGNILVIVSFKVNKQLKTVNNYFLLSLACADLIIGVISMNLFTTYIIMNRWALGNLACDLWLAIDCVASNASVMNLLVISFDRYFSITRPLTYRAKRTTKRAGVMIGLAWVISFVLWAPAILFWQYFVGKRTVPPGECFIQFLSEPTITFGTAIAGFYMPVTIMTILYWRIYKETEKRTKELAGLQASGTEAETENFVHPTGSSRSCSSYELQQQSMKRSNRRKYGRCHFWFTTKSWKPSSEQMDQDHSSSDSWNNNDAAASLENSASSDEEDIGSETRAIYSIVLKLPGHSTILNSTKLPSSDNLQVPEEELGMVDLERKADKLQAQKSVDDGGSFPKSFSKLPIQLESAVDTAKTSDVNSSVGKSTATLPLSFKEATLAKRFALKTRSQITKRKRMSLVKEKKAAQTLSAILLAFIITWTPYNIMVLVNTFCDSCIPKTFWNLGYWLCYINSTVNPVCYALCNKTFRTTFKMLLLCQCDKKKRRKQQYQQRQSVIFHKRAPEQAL

With `C[N+]1([O-])CCN(C2=Nc3cc(Cl)ccc3Nc3ccccc32)CC1` [CNO, Clozapine-N-oxide], the “rotations (FIG. 6A), mean±SEM; CNO induced ipsiversive rotations” value (AAV8R12-G88P3-HA-hM3Dq nigral, CNO i.p., saline 45.25±4.128, n=8) is recorded as 87.84±4.666. The “rotations (FIG. 6A), mean±SEM; CNO induced contraversive rotations” value (AAV8R12-G88P3-HA-hM3Dq nigral, CNO intracranial into dorsomedial striatum, saline 49.63±5.879, n=8) is 15.08±3.435. Also, the “c-Fos+ cells in the SNr” value (intracranial CNO infusion) is listed as “No significant changes in the number of nigral c-Fos+ cells” and the “c-Fos+ cells in the SNr” value (intraperitoneal CNO) is listed as “significant increase in c-Fos+ cells in the right SNr”. The “rotation behavior (FIG. 6C), mean±SEM” value reads like this: (CNO i.p., saline 47.08±10.5) 44.72±10.89; (CNO intracranial, saline 54.22±8.766) 61.39±5.774.
